Data set [1] deals with T1, Human Aryl Hydrocarbon Receptor (AHR) (Homo sapiens, UniProt P35869).
T1 construct: purchased Indigo Biosciences IB06001
T1 sequence (P35869 11-848): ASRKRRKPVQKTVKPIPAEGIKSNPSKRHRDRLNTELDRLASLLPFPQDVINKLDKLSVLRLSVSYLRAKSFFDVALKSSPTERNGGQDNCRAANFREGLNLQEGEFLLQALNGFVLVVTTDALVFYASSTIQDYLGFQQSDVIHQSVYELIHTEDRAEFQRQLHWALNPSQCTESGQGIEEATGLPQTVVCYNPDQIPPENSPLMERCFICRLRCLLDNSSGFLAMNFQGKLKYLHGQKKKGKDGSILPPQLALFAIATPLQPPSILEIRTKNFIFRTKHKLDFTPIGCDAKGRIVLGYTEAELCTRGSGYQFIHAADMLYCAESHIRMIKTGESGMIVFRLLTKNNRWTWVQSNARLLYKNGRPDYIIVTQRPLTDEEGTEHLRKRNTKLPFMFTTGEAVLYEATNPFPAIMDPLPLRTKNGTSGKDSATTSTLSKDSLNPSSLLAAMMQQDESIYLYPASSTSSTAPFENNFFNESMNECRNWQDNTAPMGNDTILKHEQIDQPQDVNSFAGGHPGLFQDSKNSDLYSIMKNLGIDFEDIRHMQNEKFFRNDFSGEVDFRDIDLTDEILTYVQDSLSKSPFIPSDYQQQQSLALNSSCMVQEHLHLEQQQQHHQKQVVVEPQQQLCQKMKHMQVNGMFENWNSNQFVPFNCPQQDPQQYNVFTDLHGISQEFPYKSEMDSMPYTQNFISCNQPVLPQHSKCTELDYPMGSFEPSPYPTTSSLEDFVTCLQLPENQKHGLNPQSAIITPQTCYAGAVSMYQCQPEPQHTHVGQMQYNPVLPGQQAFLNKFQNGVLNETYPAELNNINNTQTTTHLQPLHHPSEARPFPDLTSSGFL
The data set can be described thus: Human AHR reporter assay (cell-based  luciferase reporter gene assay).
Description: AHR Agonist Assay. Human Aryl Hydrocarbon Receptor (AHR) Reporter Assay System [Indigo Biosciences (State College, Pa) Cat #IB06001] was used as per the manufacturer's protocol.
Thus, a series of quinoline-3-carboxamide analogs were synthesized focusing upon adduct changes at the aniline-N. These analogs were synthesized as described in Example 1, and were initially screened for their AHR agonist activity using the in vitro human cell-based ARE-driven luciferase reporter gene assay (Table 3).

A further data set concerns mCRPC patients. The note with it: cited from earlier work.
The test system of data set [2] is TRAMP-C2 mouse prostate cancer. In words: In vivo growth of TRAMP-C2 allografts in C57BL/6J wild type vs. NOX2-, iNOS-, S100A9-KO hosts. The note with it: daily oral 10 mg/kg/d over a 3-week period; wild type and KO hosts. An excerpt:
Prostate Cancer Models. The source, history, and characteristics of the human prostate cancer cell lines and PDXs used, as well as cell culture conditions for their in vitro maintenance and the in vivo protocol for xenograft growth in triple immune-deficient NSG (i.e. NOD.Cg-PrkdcScidIl2rgtmlWji/Szj), adult (>8 week old) male mice obtained from the Sidney Kimmel Comprehensive Cancer Center (SKCCC) Animal Core Facility are described previously (Isaacs 2013; Brennen et al. JCI Insight. 2021, 6(8):e146827; Zhu et al. Oncogene 2020, 39(45): 6935-6949). […] In vitro growth curves were determined as described (Isaacs 2013). In vivo growth response to oral daily TasQ (10 mg/kg/d) of TRAMP-C2 mouse prostate cancers was evaluated in C57BL/6J syngeneic wild type vs. NOX-2 vs. iNOS null male mice obtained from Jackson Laboratory (Bar Harbor, ME). Growth response to oral daily TasQ (10 mg/kg/d) of TRAMP-C2 and B6CaP mouse prostate cancers was also evaluated in S100A9 null C57BL′6J male mice obtained from Dmitry Gabrilovich (Wistar Institute). […] In vitro growth curves were determined as described (Isaacs 2013). Growth response to daily oral TasQ vs. ESATA-20 (both at 10 mg/kg/d) of Myc-CaP-CR mouse prostate cancer was evaluated in syngeneic FVB/NJ castrate male mice from Jackson Laboratory. […]

Like-named read-outs stand apart in the source and are kept apart here.

Usually Cmax stands for the maximum level reached in the sampled fluid or tissue.

Take `COc1cccc2c1c(O)c(C(=O)N(c1ccc(C(F)(F)F)cc1)C1CCCCC1)c(=O)n2C` [ESATA-20]: the EC50 in data set [1] (luciferase reporter gene assay, read-out: AHR agonist EC50) is 10000 nM; in data set [1] (n = 4 independent assays/analog, read-out: AHR Agonist Response [EC50] (nM +/−SD)), 10200 nM.
`COc1cccc2c1c(O)c(C(=O)N(C)c1ccc(C(F)(F)F)cc1)c(=O)n2C` [TasQ, Tasquinimod]: the “reduction of the risk of radiographic progression or death vs. placebo” value in the data set on mCRPC patients (Phase III, oral 1 mg/day, mCRPC patients on ADT) is listed as 36%. Also, the overall survival result in the data set on mCRPC patients (Phase III, oral 1 mg/day) is listed as “not enhanced”. Further, in the data set on mCRPC patients (human, in vivo, 1 mg), the Cmax is roughly 500 nM. Also, the “maximum tolerated dose (MTD) in humans” value in the data set with mCRPC patients (human, in vivo) is reported as 1 mg. Moreover, in data set [2], the “inhibition of tumor growth” value is reported as greater than 70%.

The values above are taken from US20250059139A1, “COMPOUNDS FOR TREATMENT OF CANCER” (THE JOHNS HOPKINS UNIVERSITY, priority 2021, published 2025).
